# Data: patent US20240150334A1, “HSD17B13 INHIBITORS AND/OR DEGRADERS” (Pfizer Inc., priority 2022, published 2024)
# Counter-ions that a name gives are not always drawn.
# Biological target: wild type human HSD17B13 (Homo sapiens (Human), UniProt Q7Z5P4)
# Experiment: HEK_Beta-Est LCMS_IC50_Tekcel, whole-cell HEK-HSD17B13 inhibition assay, estrone production by LCMS
# Type: cell-based
# Conditions: geometric mean, HEK cells stably expressing wild type human HSD17B13, 25 μM FAC beta-estradiol, read-out: HEK_Beta-Est LCMS_IC50—Tekcel GMean IC50
# Summary of the method: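 HEK cells expressing wild-type human HSD17B13 were preincubated with compound for 1 hour at 37° C, then the beta-estradiol/NAD+ reaction ran for 2 hours at 37° C. Estrone formed was quantified by LCMS as product area ratio and normalized to uninhibited vehicle-control wells.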
# Chain of wild type human HSD17B13 (Q7Z5P4 20-300): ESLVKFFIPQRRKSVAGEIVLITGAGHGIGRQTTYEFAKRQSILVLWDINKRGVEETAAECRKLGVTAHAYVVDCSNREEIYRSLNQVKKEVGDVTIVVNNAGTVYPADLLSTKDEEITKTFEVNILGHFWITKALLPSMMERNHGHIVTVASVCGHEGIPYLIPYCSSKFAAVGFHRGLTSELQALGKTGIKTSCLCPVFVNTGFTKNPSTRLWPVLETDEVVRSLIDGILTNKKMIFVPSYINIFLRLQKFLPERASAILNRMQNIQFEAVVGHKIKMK
row,SMILES,IC50 [nM]
1,"O=C(NC[C@H]1CC[C@H](c2cn3cc(-c4cnn(C(F)F)c4)ccc3n2)CC1)c1cc(F)c(O)c(F)c1F [Example 167, N-{[(1r,4r)-4-{6-[1-(difluoromethyl)-1H-pyrazol-4-yl]imidazo [1,2-a]pyridin-2-yl}cyclohexyl]methyl}-2,3,5-trifluoro-4-hydroxy-benzamide, trifluoroacetate salt]",200
2,"Cn1nc(-c2noc([C@]34CC[C@](CNC(=O)c5cc(F)c(O)c(F)c5F)(CC3)CC4)n2)ccc1=O [Example 168, 2,3,5-trifluoro-4-hydroxy-N-({4-[3-(1-methyl-6-oxo-1,6-dihydropyridazin-3-yl)-1,2,4-oxadiazol-5-yl]bicyclo[2.2.2]octan-1-yl}methyl) benzamide]",380
3,"CC(C)(C)OC(=O)N[C@]12CC[C@](CNC(=O)c3cc(F)c(O)c(F)c3)(CC1)CC2 [Example 192, tert-butyl {4-[(3,5-difluoro-4-hydroxybenzamido)methyl]bicyclo[2.2.2]octan-1-yl}carbamate]",480
4,"Cc1cccc(-c2noc([C@]34CC[C@](CNC(=O)c5cc(F)c(O)c(F)c5)(CC3)CC4)n2)n1 [Example 194, 3,5-difluoro-4-hydroxy-N-({4-[3-(6-methylpyridin-2-yl)-1,2,4-oxadiazol-5-yl]bicyclo[2.2.2]octan-1-yl}methyl) benzamide]",230
5,"O=C(NC[C@]12CC[C@](c3nc(-c4ncc(C(F)(F)F)cn4)no3)(CC1)CC2)c1cc(F)c(O)c(F)c1 [Example 203, 3,5-difluoro-4-hydroxy-N-[(4-{3-[5-(trifluoromethyl)pyrimidin-2-yl]-1,2,4-oxadiazol-5-yl}bicyclo[2.2.2]octan-1-yl)methyl]benzamide]",98
6,"Cn1cc(-c2ccc3cn([C@]45CC[C@](CNC(=O)c6cc(F)c(O)c(F)c6)(CC4)CC5)nc3c2)cn1 [Example 204, 3,5-difluoro-4-hydroxy-N-({4-[6-(1-methyl-1H-pyrazol-4-yl)-2H-indazol-2-yl]bicyclo[2.2.2]octan-1-yl}methyl)benzamide]",99
7,"O=C(NC[C@]12CC[C@](n3cc4ccc(-c5cncnc5)cc4n3)(CC1)CC2)c1cc(F)c(O)c(F)c1 [Example 206, 3,5-difluoro-4-hydroxy-N-({4-[6-(pyrimidin-5-yl)-2H-indazol-2-yl]bicyclo [2.2.2]octan-1-yl}methyl)benzamide]",150
8,"O=C(NC[C@]12CC[C@](n3cc4ccc(-c5ncccn5)cc4n3)(CC1)CC2)c1cc(F)c(O)c(F)c1 [Example 207, 3,5-difluoro-4-hydroxy-N-({4-[6-(pyrimidin-2-yl)-2H-indazol-2-yl]bicyclo [2.2.2]octan-1-yl}methyl)benzamide]",140
9,"O=C(NC[C@]12CC[C@](n3cc4ccc(-c5cnccn5)cc4n3)(CC1)CC2)c1cc(F)c(O)c(F)c1 [Example 208, 3,5-difluoro-4-hydroxy-N-({4-[6-(pyrazin-2-yl)-2H-indazol-2-yl]bicyclo [2.2.2]octan-1-yl}methyl)benzamide]",120
10,"Cn1cc(-c2ccc3cn([C@]45CC[C@](CNC(=O)c6cc(F)c(O)c(F)c6F)(CC4)CC5)nc3c2)cn1 [Example 209, 2,3,5-trifluoro-4-hydroxy-N-({4-[6-(1-methyl-1H-pyrazol-4-yl)-2H-indazol-2-yl]bicyclo[2.2.2]octan-1-yl}methyl)benzamide]",150

# More lines, now with the values ahead:
row,IC50 [nM],SMILES
1,490,"O=C(NC[C@H]1CC[C@H](c2nc3ccccc3o2)CC1)c1cc(F)c(O)c(F)c1 [Example 1, N-{[(1r,4r)-4-(1,3-Benzoxazol-2-yl)cyclohexyl]methyl}-3,5-difluoro-4-hydroxybenzamide]"
2,470,"O=C(NC[C@H]1CC[C@H](c2nc(-c3ccc(C(F)(F)F)cn3)no2)CC1)c1cc(F)c(O)c(F)c1 [Example 2, 3,5-Difluoro-4-hydroxy-N-{[(1r,4r)-4-{3-[5-(trifluoromethyl)pyridin-2-yl]-1,2,4-oxadiazol-5-yl}cyclohexyl]methyl}benzamide]"
3,290,"O=C(NC[C@H]1CC[C@H](c2nc(-c3ncc(C(F)(F)F)cn3)no2)CC1)c1cc(F)c(O)c(F)c1 [Example 4, 3,5-Difluoro-4-hydroxy-N-{[(1r,4r)-4-{3-[5-(trifluoromethyl)pyrimidin-2-yl]-1,2,4-oxadiazol-5-yl}cyclohexyl]methyl}benzamide]"
4,72,"Cn1cc(-c2ccc3cn([C@H]4CC[C@H](CNC(=O)c5cc(F)c(O)c(F)c5F)CC4)nc3c2)cn1 [Example 5, 2,3,5-Trifluoro-4-hydroxy-N-({(1r,4r)-4-[6-(1-methyl-1H-pyrazol-4-yl)-2H-indazol-2-yl]cyclohexyl}methyl)benzamide, trifluoroacetate salt]"
5,180,"O=C(NC[C@H]1CC[C@H](n2cc3cc(-c4cnn(C(F)F)c4)ccc3n2)CC1)c1cc(F)c(O)c(F)c1F [Example 161, N-{[(1r,4r)-4-{5-[1-(difluoromethyl)-1H-pyrazol-4-yl]-2H-indazol-2-yl}cyclo-hexyl]methyl}-2,3,5-trifluoro-4-hydroxy-benzamide]"
6,310,"Cc1ccn(-c2ccc3cn([C@H]4CC[C@H](CNC(=O)c5cc(F)c(O)c(F)c5F)CC4)nc3c2)n1 [Example 162, 2,3,5-trifluoro-4-hydroxy-N-({(1r,4r)-4-[6-(3-methyl-1H-pyrazol-1-yl)-2H-indazol-2-yl]cyclohexyl}methyl) benzamide]"
7,330,"Cc1cn(-c2ccc3cn([C@H]4CC[C@H](CNC(=O)c5cc(F)c(O)c(F)c5F)CC4)nc3c2)cn1 [Example 163, 2,3,5-trifluoro-4-hydroxy-N-({(1r,4r)-4-[6-(4-methyl-1H-imidazol-1-yl)-2H-indazol-2-yl]cyclo-hexyl}methyl) benzamide]"
8,230,"O=C(NC[C@H]1CC[C@H](n2cc3ccc(-c4cnn(C(CO)CCl)c4)cc3n2)CC1)c1cc(F)c(O)c(F)c1 (stereo partly drawn) [Example 164, N-{[(1r,4r)-4-{6-[1-(1-chloro-3-hydroxypropan-2-yl)-1H-pyrazol-4-yl]-2H-indazol-2-yl}cyclohexyl]methyl}-3,5-difluoro-4-hydroxybenzamide, trifluoroacetate salt]"
9,420,"O=C(NC[C@H]1CC[C@H](n2cc3ccc(-n4cncn4)cc3n2)CC1)c1cc(F)c(O)c(F)c1F [Example 165, 2,3,5-trifluoro-4-hydroxy-N-({(1r,4r)-4-[6-(1H-1,2,4-triazol-1-yl)-2H-indazol-2-yl]cyclohexyl}methyl) benzamide]"
10,410,"O=C(NC[C@H]1CC[C@H](n2cc3ccc(-n4ccnc4)cc3n2)CC1)c1cc(F)c(O)c(F)c1F [Example 166, 2,3,5-trifluoro-4-hydroxy-N-({(1r,4r)-4-[6-(1H-imidazol-1-yl)-2H-indazol-2-yl]cyclohexyl}methyl) benzamide, trifluoroacetate salt]"
11,430,"O=C(NC[C@H]1CC[C@H](n2cc3cnc(-c4cccnc4)cc3n2)CC1)c1cc(F)c(O)c(F)c1 [Example 189, 3,5-difluoro-4-hydroxy-N-({(1r,4r)-4-[6-(pyridin-3-yl)-2H-pyrazolo[4,3-c]pyridin-2-yl]cyclohexyl}methyl) benzamide]"
12,350,"COc1ncc(-c2cc3cn([C@H]4CC[C@H](CNC(=O)c5cc(F)c(O)c(F)c5)CC4)nc3cn2)cn1 [Example 201, 3,5-difluoro-4-hydroxy-N-({(1r,4r)-4-[5-(2-methoxypyrimidin-5-yl)-2H-pyrazolo[3,4-c]pyridin-2-yl]cyclohexyl}methyl) benzamide, trifluoroacetate salt]"
13,220,"O=C(NC[C@]12CC[C@](n3cc4ccc(Br)cc4n3)(CC1)CC2)c1cc(F)c(O)c(F)c1 [Example 205, N-{[4-(6-bromo-2H-indazol-2-yl)bicyclo[2.2.2]octan-1-yl]methyl}-3,5-difluoro-4-hydroxybenzamide]"

# Biological target: HSD17B13 enzyme (Homo sapiens (Human), UniProt Q7Z5P4)
# Experiment: hHSD17B13 IC50 Assay (FAC beta-estradiol), purified protein enzyme activity assay with NAD(P)H-Glo luciferase readout
# Type: biochemical
# Conditions: geometric mean, 12 μM FAC beta-estradiol, 500 μM NAD+, read-out: hHSD17B13_IC50 GMean IC50
# Description: The following protocols may of course be varied by those skilled in the art. hHSD17B13 IC50 Assay (FAC beta-estradiol)
# HSD17B13 enzyme inhibition potency of test compounds was determined using a purified protein biochemical enzyme activity assay, using NAD(P)H-Glo luciferase readout (Promega). HSD17B13 enzyme uses the oxidized form of nicotinamide adenine dinucleotide (NAD+) as a cofactor during metabolism of Beta-Estradiol (substrate) to […], while converting NAD+ to the reduced form (NADH). The Promega NAD(P)H-Glo™ assay is a homogeneous bioluminescent assay that generates a light signal from biochemical reactions that contain NADH (or nicotinamide adenine dinucleotide phosphate, NADPH). In the presence of NADH (or NADPH), the enzyme Reductase reduces a proluciferin reductase substrate to form luciferin. Luciferin then is quantified using Ultra-Glo™ Recombinant Luciferase (rLuciferase), and the light signal produced is proportional to the amount of NAD(P)H in the sample. […] The reaction was initiated by the addition of 2 μL/well purified HSD17B13 protein (30 nM FAC in assay buffer). Compound, substrate mix and HSD17B13 protein was incubated in the dark at room temperature for 2 hours before the addition of 3 μL/well NAD(P)H-Glo detection reagent, prepared from luciferase detection reagent and reductase/reductase substrate, as per manufacturer's instructions (Promega, G9061). Detection reagent was incubated in the dark for 1 hour at room temperature before plates were read on the Envision plate reader (Perkin Elmer) using a luminescent protocol. Data expressed as relative luminescent units (RLUs) were then normalized to control wells using Activity Base (IDBS). Zero percent effect (ZPE) was defined as RLUs generated from uninhibited HSD17B13 protein (vehicle control).
# Chain of HSD17B13 enzyme (Q7Z5P4 20-300): as above
row,IC50 [nM],SMILES
1,14,"O=C(NC[C@H]1CC[C@H](c2nc3ccccc3o2)CC1)c1cc(F)c(O)c(F)c1 [Example 1, N-{[(1r,4r)-4-(1,3-Benzoxazol-2-yl)cyclohexyl]methyl}-3,5-difluoro-4-hydroxybenzamide]"
2,12,"O=C(NC[C@H]1CC[C@H](c2nc(-c3ccc(C(F)(F)F)cn3)no2)CC1)c1cc(F)c(O)c(F)c1 [Example 2, 3,5-Difluoro-4-hydroxy-N-{[(1r,4r)-4-{3-[5-(trifluoromethyl)pyridin-2-yl]-1,2,4-oxadiazol-5-yl}cyclohexyl]methyl}benzamide]"
3,5.5,"O=C(NC[C@H]1CC[C@H](c2nc(-c3ncc(C(F)(F)F)cn3)no2)CC1)c1cc(F)c(O)c(F)c1 [Example 4, 3,5-Difluoro-4-hydroxy-N-{[(1r,4r)-4-{3-[5-(trifluoromethyl)pyrimidin-2-yl]-1,2,4-oxadiazol-5-yl}cyclohexyl]methyl}benzamide]"
4,> 2500,"Cn1cc(-c2ccc3cn([C@H]4CC[C@H](CNC(=O)c5cc(F)c(O)c(F)c5F)CC4)nc3c2)cn1 [Example 5, 2,3,5-Trifluoro-4-hydroxy-N-({(1r,4r)-4-[6-(1-methyl-1H-pyrazol-4-yl)-2H-indazol-2-yl]cyclohexyl}methyl)benzamide, trifluoroacetate salt]"
5,20,"COc1ccc2cn([C@H]3CC[C@H](CNC(=O)c4cc(F)c(O)c(F)c4)CC3)nc2c1 [Example 23, 3,5-difluoro-4-hydroxy-N-{[(1r,4r)-4-(6-methoxy-2H-indazol-2-yl)cyclohexyl]methyl} benzamide]"
6,64,"Cc1noc([C@H]2CC[C@H](CNC(=O)c3cc(F)c(O)c(F)c3)CC2)n1 [Example 213, 3,5-difluoro-4-hydroxy-N-{[(1r,4r)-4-(3-methyl-1,2,4-oxadiazol-5-yl)cyclohexyl]methyl}benzamide]"
7,290,"Cc1noc([C@H]2CC[C@H](CNC(=O)c3ccc(O)c(F)c3)CC2)n1 [Example 214, 3-fluoro-4-hydroxy-N-{[(1r,4r)-4-(3-methyl-1,2,4-oxadiazol-5-yl)cyclohexyl]methyl} benzamide]"
